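Compound exposure: 48 hours, 5 concentrations, 96-well plates. At the GI50, growth is halved.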 Active and inactive are the calls of the source. Rule as the data show it: active = GI50 up to about 1.1 µM and inactive = higher.
What was measured:
Test in all cases: growth of human tumour cells (NCI), 48 h
A498 = system: A498
SNB-75 = system: SNB-75
MDA-MB-435 = system: MDA-MB-435
NCI-H460 = system: NCI-H460
MCF7 = system: MCF7
PC-3 = system: PC-3
TK-10 = system: TK-10
SR = system: SR
T47D = system: T47D
HOP-62 = system: HOP-62
HL-60 = system: HL-60
M14 = system: M14
SK-MEL-2 = system: SK-MEL-2
Malme-3M = system: Malme-3M
NCI/ADR-RES = system: NCI/ADR-RES
HCC 2998 = system: HCC 2998
DMS-114 = system: DMS-114
SNB-78 = system: SNB-78
HCT-116 = system: HCT-116
NCI-H522 = system: NCI-H522

Measured: GI50

CCOC(=O)c1csc(NC(=O)CN2CCN(C)CC2)n1
inactive: A498 > 100 µM | SNB-75 > 100 µM | MDA-MB-435 > 100 µM | NCI-H460 > 100 µM | MCF7 > 100 µM | PC-3 > 100 µM | TK-10 > 100 µM | SR > 100 µM | T47D > 100 µM | HOP-62 > 100 µM | HL-60 > 100 µM | M14 > 100 µM | SK-MEL-2 > 100 µM | Malme-3M > 100 µM | NCI/ADR-RES > 100 µM | HCC 2998 > 100 µM

CCOc1ccc(/N=N/c2ccc3oc(=O)c(/C(C)=N\NC(=O)CC(=O)Nc4ccc(Cl)cc4)cc3c2)cc1
inactive: DMS-114 15.9 µM | SNB-78 27.9 µM | TK-10 12.9 µM | HCT-116 16.4 µM | NCI-H522 18.6 µM | SR 3.47 µM | HOP-62 17.6 µM | SK-MEL-2 3.43 µM | Malme-3M 16 µM | HCC 2998 16.3 µM

CC(O)=C1C(=O)CCC1=O
inactive: SNB-75 > 100 µM | MDA-MB-435 > 100 µM | NCI-H460 > 100 µM | MCF7 > 100 µM | PC-3 > 100 µM | TK-10 > 100 µM | HCT-116 > 100 µM | NCI-H522 > 100 µM | SR > 100 µM | T47D > 100 µM | HOP-62 > 100 µM | HL-60 > 100 µM | M14 > 100 µM | SK-MEL-2 > 100 µM | Malme-3M > 100 µM | NCI/ADR-RES > 100 µM | HCC 2998 > 100 µM

Cc1cc(C)n(-c2nsc3ccccc23)n1
inactive: DMS-114 > 100 µM | SNB-75 26.9 µM | SNB-78 > 100 µM | NCI-H460 > 100 µM | TK-10 > 100 µM | HCT-116 > 100 µM | SR > 100 µM | HOP-62 > 100 µM | HL-60 > 100 µM | M14 > 100 µM | SK-MEL-2 > 100 µM | HCC 2998 > 100 µM

CCOC(=O)C(NC(=O)CC)(Nc1ccccc1F)C(F)(F)F (stereo not drawn)
inactive: SNB-75 > 100 µM | MDA-MB-435 > 100 µM | NCI-H460 > 100 µM | MCF7 > 100 µM | PC-3 > 100 µM | TK-10 > 100 µM | HCT-116 > 100 µM | NCI-H522 > 100 µM | SR > 100 µM | T47D 38.4 µM | HL-60 > 100 µM | M14 > 100 µM | SK-MEL-2 > 100 µM | NCI/ADR-RES 99.3 µM | HCC 2998 > 100 µM

O=C1N(Cc2ccccc2)C2CSCC2N1Cc1ccccc1 (stereo not drawn)
inactive: SNB-75 41.9 µM | MDA-MB-435 20.2 µM | NCI-H460 18.3 µM | MCF7 31.4 µM | PC-3 29.6 µM | TK-10 29.6 µM | HCT-116 36.4 µM | NCI-H522 3.94 µM | SR 37.2 µM | T47D 27.2 µM | HOP-62 1.85 µM | M14 10.5 µM | SK-MEL-2 16.7 µM | Malme-3M 13.5 µM | NCI/ADR-RES 24.5 µM | HCC 2998 26.5 µM

CC(C)OP(=O)(OC(C)C)c1c(N)n[nH]c1Nc1ccccc1
inactive: A498 > 100 µM | SNB-75 > 100 µM | MDA-MB-435 > 100 µM | NCI-H460 > 100 µM | MCF7 > 100 µM | PC-3 > 100 µM | TK-10 > 100 µM | NCI-H522 > 100 µM | SR > 100 µM | T47D > 100 µM | HOP-62 > 100 µM | M14 > 100 µM | SK-MEL-2 > 100 µM | Malme-3M > 100 µM | NCI/ADR-RES > 100 µM | HCC 2998 > 100 µM

CN1CCC23c4ccccc4NC1C21CCN(C)C3Nc2ccccc21
inactive: DMS-114 > 375 µM | A498 > 218 µM | SNB-75 > 303 µM | SNB-78 151 µM | NCI-H460 > 375 µM | MCF7 > 375 µM | HCT-116 356 µM | NCI-H522 > 375 µM | HOP-62 > 375 µM | HL-60 59.7 µM | SK-MEL-2 > 375 µM | Malme-3M 249 µM | NCI/ADR-RES > 375 µM | HCC 2998 > 375 µM

N=C(N)SCc1cccc([N+](=O)[O-])c1
inactive: DMS-114 23.6 µM | A498 25.1 µM | SNB-75 30.3 µM | SNB-78 35.6 µM | NCI-H460 34.1 µM | MCF7 28.4 µM | HCT-116 26.5 µM | NCI-H522 13.5 µM | HOP-62 26.7 µM | HL-60 18.8 µM | SK-MEL-2 24 µM | Malme-3M 34.2 µM | NCI/ADR-RES 21.2 µM | HCC 2998 34.1 µM

COc1ccc(N2C(=O)C3c4[nH]c5ccccc5c4C4CCCCCCCCCC4C3C2=O)cc1 (stereo not drawn)
inactive: A498 > 10 µM | SNB-75 > 10 µM | MDA-MB-435 > 10 µM | NCI-H460 > 10 µM | MCF7 > 10 µM | PC-3 > 10 µM | TK-10 > 10 µM | HCT-116 > 10 µM | NCI-H522 > 10 µM | SR > 10 µM | T47D > 10 µM | HOP-62 > 10 µM | HL-60 > 10 µM | M14 > 10 µM | SK-MEL-2 > 10 µM | Malme-3M > 10 µM | NCI/ADR-RES > 10 µM | HCC 2998 > 10 µM

O=C(NC(=O)c1cn(CCN2CCNCC2)c(=O)[nH]c1=O)OCc1ccccc1
inactive: DMS-114 63.5 µM | SNB-75 68.9 µM | SNB-78 > 100 µM | NCI-H460 > 100 µM | HCT-116 > 100 µM | NCI-H522 > 100 µM | SR > 100 µM | HOP-62 > 100 µM | HL-60 > 100 µM | M14 > 100 µM | Malme-3M > 100 µM

CCCCCCCCCCCCCCCCCCOCC(O)CO (stereo not drawn) [BATILOL]
inactive: DMS-114 18 µM | A498 3.61 µM | SNB-75 9.48 µM | SNB-78 > 25 µM | NCI-H460 > 20.2 µM | MCF7 > 25 µM | HCT-116 > 25 µM | NCI-H522 9.18 µM | HOP-62 14 µM | HL-60 10.5 µM | SK-MEL-2 > 24.2 µM | Malme-3M > 11.1 µM | NCI/ADR-RES > 25 µM | HCC 2998 12.4 µM

Reference: ChEMBL document CHEMBL1201862, “PubChem BioAssay data set” (2004)
